In patent US12606528B2, “Methods and materials for inhibiting NF-kB activity” (University of Pittsburgh - Of the Commonwealth System of …, priority 2019, dated 2026):
One block for each molecule: values may come before it.

Tests used:
TNF release = test: TNF assay: TNF release from LPS-stimulated human PBMCs (TNF ELISA); format: cell-based; conditions: PBMC; LPS-stimulated human PBMCs, TNF ELISA; read-out: IC50 (TNF assay)
Method in brief: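 TNF ELISA on supernatants read-out; cells were 10k human PBMCs/well given LPS at 10 ng/mL for 18 h after a 2 h compound pre-incubation across a concentration series, with IC50 derived for suppression of TNF secretion.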

NF-κB = NF-κB assay: THP1-NF-κB-LUC cells, LPS-stimulated secreted luciferase; format: cell-based; conditions: THP1-NF-κB-LUC cells, LPS-stimulated; read-out: IC50 (NF-κB assay)
Method in brief: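 THP1-NF-κB-LUC cells (25k/well) were pretreated with compounds for 2 h, then stimulated with LPS (10 ng/mL) for 18 h. Secreted luciferase was measured and normalized to vehicle, and IC50 was fitted from the concentration series.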

IC50 (TNF release): > 10 µM | IC50 (NF-κB): > 10 µM
SMILES: O=C1CCOc2cc(S(=O)(=O)Nc3cccc(Cl)c3)c(Br)cc2N1 [BC19655]

IC50 (TNF release): > 10 µM | IC50 (NF-κB): 1 to 10 µM
SMILES: O=C1CCOc2cc(S(=O)(=O)Nc3ccc(Cl)cc3)c(Br)cc2N1 [BC19656]

IC50 (TNF release): < 0.1 µM | IC50 (NF-κB): 1 to 10 µM
SMILES: C[S+]([O-])c1sc(-c2ccc3ccccc3c2)nc1S(=O)(=O)c1ccc(Cl)cc1 (centres unmarked) [BC19671]

IC50 (TNF release): 0.1 to 1 µM | IC50 (NF-κB): 1 to 10 µM
SMILES: CS(=O)(=O)c1sc(-c2ccc3ccccc3c2)nc1S(=O)(=O)c1ccc(Cl)cc1 [BC19672]

IC50 (TNF release): > 10 µM | IC50 (NF-κB): 1 to 10 µM
SMILES: CCC[S+]([O-])c1sc(-c2ccc3ccccc3c2)nc1S(=O)(=O)c1ccc(Cl)cc1 (centres unmarked) [BC19673]

IC50 (TNF release): > 10 µM | IC50 (NF-κB): 1 to 10 µM
SMILES: CCCS(=O)(=O)c1sc(-c2ccc3ccccc3c2)nc1S(=O)(=O)c1ccc(Cl)cc1 [BC19674]

IC50 (TNF release): 1 to 10 µM | IC50 (NF-κB): 1 to 10 µM
SMILES: CC(C)C[S+]([O-])c1sc(-c2ccc3ccccc3c2)nc1S(=O)(=O)c1ccc(Cl)cc1 (centres unmarked) [BC19675]

IC50 (TNF release): > 10 µM | IC50 (NF-κB): 1 to 10 µM
SMILES: O=S(=O)(CC1CC1)c1sc(-c2ccc3ccccc3c2)nc1S(=O)(=O)c1ccc(Cl)cc1 [BC19676]

IC50 (TNF release): 1 to 10 µM | IC50 (NF-κB): 1 to 10 µM
SMILES: COCC[S+]([O-])c1sc(-c2ccc3ccccc3c2)nc1S(=O)(=O)c1ccc(Cl)cc1 (centres unmarked) [BC19677]

IC50 (TNF release): 1 to 10 µM | IC50 (NF-κB): 1 to 10 µM
SMILES: COCCS(=O)(=O)c1sc(-c2ccc3ccccc3c2)nc1S(=O)(=O)c1ccc(Cl)cc1 [BC19678]

IC50 (TNF release): 0.1 to 1 µM | IC50 (NF-κB): 1 to 10 µM
SMILES: COCC[S+]([O-])c1sc(-c2cccnc2)nc1S(=O)(=O)c1ccc(Cl)cc1 (centres unmarked) [BC19679]

IC50 (TNF release): > 10 µM | IC50 (NF-κB): > 10 µM
SMILES: CCCSc1snc(-c2ccc(F)cc2)c1S(=O)(=O)c1ccc(Cl)cc1 [BC19680]

IC50 (TNF release): < 0.1 µM | IC50 (NF-κB): 0.1 to 1 µM
SMILES: CCC[S+]([O-])c1snc(-c2ccc(F)cc2)c1S(=O)(=O)c1ccc(Cl)cc1 (centres unmarked) [BC19681]

IC50 (TNF release): < 0.1 µM | IC50 (NF-κB): 0.1 to 1 µM
SMILES: CCCS(=O)(=O)c1snc(-c2ccc(F)cc2)c1S(=O)(=O)c1ccc(Cl)cc1 [BC19682]

IC50 (TNF release): 1 to 10 µM | IC50 (NF-κB): < 0.1 µM
SMILES: O=C1CCOc2c(cc(Br)cc2S(=O)(=O)Nc2ccc(Cl)cc2)N1 [BC19685]

IC50 (TNF release): > 10 µM | IC50 (NF-κB): < 0.1 µM
SMILES: CCc1ccc(NS(=O)(=O)c2cc(Br)cc3c2OCCC(=O)N3)cc1 [BC19686]

IC50 (TNF release): > 10 µM | IC50 (NF-κB): < 0.1 µM
SMILES: CC(C)c1ccc(NS(=O)(=O)c2cc(Br)cc3c2OCCC(=O)N3)cc1 [BC19687]

IC50 (TNF release): > 10 µM | IC50 (NF-κB): > 10 µM
SMILES: COc1ccc(NS(=O)(=O)c2cc(Br)cc3c2OCCC(=O)N3)cc1Cl [BC19688]

The remaining lines, values behind:

SMILES: Cc1ccc(NS(=O)(=O)c2cc(Br)cc3c2OCCC(=O)N3)cc1Cl [BC19651]
IC50 (TNF release): > 10 µM | IC50 (NF-κB): 0.1 to 1 µM

SMILES: O=C1CCOc2cc(S(=O)(=O)Nc3ccc(OC(F)(F)F)cc3)c(Br)cc2N1 [BC19652]
IC50 (TNF release): > 10 µM | IC50 (NF-κB): 1 to 10 µM

SMILES: Cc1ccc(NS(=O)(=O)c2cc3c(cc2Br)NC(=O)CCO3)cc1F [BC19653]
IC50 (TNF release): > 10 µM | IC50 (NF-κB): > 10 µM

SMILES: O=C1CCOc2cc(S(=O)(=O)Nc3cccc(F)c3)c(Br)cc2N1 [BC19654]
IC50 (TNF release): > 10 µM | IC50 (NF-κB): > 10 µM

SMILES: CCc1cccc(NS(=O)(=O)c2cc3c(cc2Br)NC(=O)CCO3)c1 [BC19657]
IC50 (TNF release): > 10 µM | IC50 (NF-κB): 1 to 10 µM

SMILES: O=C1CCOc2cc(S(=O)(=O)Nc3ccc(F)cc3Cl)c(Br)cc2N1 [BC19658]
IC50 (TNF release): > 10 µM | IC50 (NF-κB): > 10 µM

SMILES: Cc1ccc(NS(=O)(=O)c2cc3c(cc2Br)NC(=O)CCO3)cc1Cl [BC19659]
IC50 (TNF release): > 10 µM | IC50 (NF-κB): > 10 µM

SMILES: O=C1CCOc2cc(S(=O)(=O)Nc3ccc(F)cc3)c(Br)cc2N1 [BC19660]
IC50 (TNF release): > 10 µM | IC50 (NF-κB): > 10 µM

SMILES: Cc1ccc(NS(=O)(=O)c2cc3c(cc2Br)NC(=O)CCO3)cc1 [BC19661]
IC50 (TNF release): > 10 µM | IC50 (NF-κB): > 10 µM

SMILES: CN1CCN(C(=O)C2CCc3nc(-c4ccc(F)cc4)c(-c4ccc(F)cc4)nc3C2)CC1 (centres unmarked) [BC19663]
IC50 (TNF release): > 10 µM | IC50 (NF-κB): 0.1 to 1 µM

SMILES: OCCCn1c(-c2ccc3nc(-c4ccc(F)cc4)c(-c4ccc(F)cc4)nc3c2)n[nH]c1=S [BC19664]
IC50 (TNF release): 0.1 to 1 µM | IC50 (NF-κB): 0.1 to 1 µM

SMILES: OCCCn1cnnc1-c1ccc2nc(-c3ccc(F)cc3)c(-c3ccc(F)cc3)nc2c1 [BC19665]
IC50 (TNF release): 1 to 10 µM | IC50 (NF-κB): < 0.1 µM

SMILES: CN1CCN(C(=O)c2cc3nc(-c4ccc(F)cc4)c(-c4ccc(F)cc4)nc3cn2)CC1 [BC19666]
IC50 (TNF release): > 10 µM | IC50 (NF-κB): 0.1 to 1 µM

SMILES: Cn1oc(-c2ccc3nc(-c4ccc(F)cc4)c(-c4ccc(F)cc4)nc3c2)cc1=O [BC19667]
IC50 (TNF release): > 10 µM | IC50 (NF-κB): > 10 µM

SMILES: C/N=C(\c1ccc2nc(-c3ccc(F)cc3)c(-c3ccc(F)cc3)nc2c1)N1CCN(C)CC1 [BC19668]
IC50 (TNF release): > 10 µM | IC50 (NF-κB): 0.1 to 1 µM

SMILES: O=C1CCOc2cc(S(=O)(=O)Nc3ccccc3)c(Br)cc2N1 [BC19689]
IC50 (TNF release): 1 to 10 µM | IC50 (NF-κB): > 10 µM
